From patent US20240208992A1, “MACROCYCLES AS CFTR MODULATORS” (Idorsia Pharmaceuticals Ltd, priority 2021, published 2024)

Target: human F508del-CFTR (Homo sapiens, UniProt P13569, DEL508-508)
Experiment: F508del-CFTR cell surface expression (corrector activity), DiscoveRx ß-galactosidase complementation chemiluminescence assay in recombinant U2OS cell line;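 note: U2OS cells co-expressing ProLink-tagged F508del-CFTR and a membrane-anchored enzyme acceptor, where more surface CFTR restores β-galactosidase activity measured by chemiluminescence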
Conditions: for EC50: EC50, F508del-CFTR cell surface expression, U2OS cells, 16h compound incubation, geomean values; for Emax: in relation to Emax of corrector lumacaftor (=100%), arithmetic mean values

Chain of human F508del-CFTR (P13569 with tags, fused parts or gaps DEL508-508): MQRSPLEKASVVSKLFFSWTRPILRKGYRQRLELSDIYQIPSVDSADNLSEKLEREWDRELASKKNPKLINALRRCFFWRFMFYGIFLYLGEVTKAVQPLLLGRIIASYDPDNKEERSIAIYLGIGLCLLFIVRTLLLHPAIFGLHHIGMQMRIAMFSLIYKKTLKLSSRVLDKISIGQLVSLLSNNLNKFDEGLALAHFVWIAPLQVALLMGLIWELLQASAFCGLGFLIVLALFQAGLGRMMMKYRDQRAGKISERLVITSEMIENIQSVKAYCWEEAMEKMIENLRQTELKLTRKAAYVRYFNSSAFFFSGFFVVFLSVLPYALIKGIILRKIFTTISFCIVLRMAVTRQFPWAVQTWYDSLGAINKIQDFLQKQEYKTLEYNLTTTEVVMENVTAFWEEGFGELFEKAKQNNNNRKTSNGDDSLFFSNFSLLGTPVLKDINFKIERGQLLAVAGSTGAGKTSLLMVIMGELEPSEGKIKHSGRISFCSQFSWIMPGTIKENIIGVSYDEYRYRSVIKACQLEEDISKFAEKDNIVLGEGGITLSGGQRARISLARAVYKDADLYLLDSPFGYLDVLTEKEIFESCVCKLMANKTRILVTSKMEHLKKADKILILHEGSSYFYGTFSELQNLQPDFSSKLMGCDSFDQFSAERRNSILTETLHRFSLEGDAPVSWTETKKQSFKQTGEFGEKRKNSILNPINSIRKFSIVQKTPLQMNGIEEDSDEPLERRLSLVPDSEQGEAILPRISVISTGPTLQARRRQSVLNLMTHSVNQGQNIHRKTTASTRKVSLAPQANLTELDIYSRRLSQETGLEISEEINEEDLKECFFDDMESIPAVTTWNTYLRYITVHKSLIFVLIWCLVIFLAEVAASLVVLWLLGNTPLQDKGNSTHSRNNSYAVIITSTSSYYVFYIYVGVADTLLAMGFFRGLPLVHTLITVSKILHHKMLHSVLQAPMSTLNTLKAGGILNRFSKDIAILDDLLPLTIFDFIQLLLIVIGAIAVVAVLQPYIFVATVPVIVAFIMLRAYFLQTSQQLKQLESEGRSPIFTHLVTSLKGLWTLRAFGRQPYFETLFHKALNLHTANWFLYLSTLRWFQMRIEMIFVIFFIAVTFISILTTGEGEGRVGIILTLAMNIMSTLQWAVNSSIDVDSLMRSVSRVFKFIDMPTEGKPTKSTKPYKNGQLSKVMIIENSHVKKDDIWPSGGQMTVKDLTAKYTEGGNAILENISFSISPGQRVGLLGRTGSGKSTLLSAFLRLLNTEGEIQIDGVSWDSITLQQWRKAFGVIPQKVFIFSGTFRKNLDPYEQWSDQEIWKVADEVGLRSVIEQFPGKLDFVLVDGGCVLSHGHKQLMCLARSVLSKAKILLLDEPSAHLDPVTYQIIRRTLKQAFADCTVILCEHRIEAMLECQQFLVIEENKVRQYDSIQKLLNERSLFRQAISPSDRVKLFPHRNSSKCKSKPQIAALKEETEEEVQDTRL

SMILES	EC50 [µM]	Emax (U2OS) [%]	Emax [%]
COc1cccc(CCNC(=O)[C@@H]2CC(=O)N(C)[C@@H](CC(C)C)C(=O)N3CCCC[C@@H]3C(=O)N[C@H](Cc3ccccc3)COc3cnc4ccc(Cl)cc4c3C(=O)N2)c1 [Example 528, (9S,13S,19aR,22R)-22-benzyl-5-chloro-13-isobutyl-N-(3-methoxyphenethyl)-12-methyl-7,11,14,20-tetraoxo-7,8,9,10,11,12,13,14,17,18,19,19a,20,21,22,23-hexadecahydro-16H-pyrido[2′,11:6,7][1]oxa[4,7,10,14]tetraazacycloheptadecino[17,16-c]quinoline-9-carboxamide]	0.321	337	–
COc1cc2c(cn1)OC[C@@H](Cc1ccccc1)NC(=O)[C@H]1CCCCN1C(=O)[C@H](CC(C)C)N(C)C(=O)C[C@@H](C(=O)NCCc1nc(C3CC3)no1)NC2=O [Example 529, (7S,11S,17aR,20R)-20-benzyl-N-(2-(3-cyclopropyl-1,2,4-oxadiazol-5-yl)ethyl)-11-isobutyl-3-methoxy-10-methyl-5,9,12,18-tetraoxo-5,6,7,8,9,10,11,12,15,16,17,17a,18,19,20,21-hexadecahydro-14H-dipyrido[2,1-f:2′,3′-p][1]oxa[4,7,10,14]tetraazacycloheptadecine-7-carboxamide]	0.947	206	–
COc1cccc(CCNC(=O)[C@@H]2CC(=O)N(C)[C@@H](CC(C)C)C(=O)N(C)CC(=O)N[C@H](Cc3ccccc3)COc3ncc4ccccc4c3C(=O)N2)c1 [Example 530]	0.334	353	–
COc1cccc(CCNC(=O)[C@@H]2CC(=O)N(C)[C@@H](CC(C)C)C(=O)N(C)CC(=O)N[C@H](Cc3ccccc3)COc3ccc4cc(C)oc4c3C(=O)N2)c1 [Example 531, (8R,14S,18S)-8-benzyl-14-isobutyl-N-(3-methoxyphenethyl)-2,12,15-trimethyl-10,13,16,20-tetraoxo-7,8,9,10,11,12,13,14,15,16,17,18,19,20-tetradecahydrobenzofuro[7,6-p][1]oxa[4,7,10,14]tetraazacycloheptadecine-18-carboxamide]	0.265	336	–
Cc1cc2ccc3c(c2o1)C(=O)N[C@H](C(=O)NCCc1cc(C2CC2)no1)CC(=O)N(C)[C@@H](CC(C)C)C(=O)N(C)CC(=O)N[C@H](Cc1ccccc1)CO3 [Example 532, (8R,14S,18S)-8-benzyl-N-(2-(3-cyclopropylisoxazol-5-yl)ethyl)-14-isobutyl-2,12,15-trimethyl-10,13,16,20-tetraoxo-7,8,9,10,11,12,13,14,15,16,17,18,19,20-tetradecahydrobenzofuro[7,6-p][1]oxa[4,7,10,14]tetraazacycloheptadecine-18-carboxamide]	0.397	375	–
COc1cc(CCNC(=O)[C@@H]2CC(=O)N(C)[C@@H](CC(C)C)C(=O)N3CCCC[C@@H]3C(=O)N[C@H](Cc3ccccc3)COc3cc(C)nc(OC)c3C(=O)N2)on1 [Example 533, (7S,11S,17aR,20R)-20-benzyl-11-isobutyl-4-methoxy-N-(2-(3-methoxyisoxazol-5-yl)ethyl)-2,10-dimethyl-5,9,12,18-tetraoxo-5,6,7,8,9,10,11,12,15,16,17,17a,18,19,20,21-hexadecahydro-14H-dipyrido[2,1-f:3′,4′-p][1]oxa[4,7,10,14]tetraazacycloheptadecine-7-carboxamide]	0.221	352	–
Cc1cc(CCNC(=O)[C@@H]2CC(=O)N(C)[C@@H](CC(C)C)C(=O)N3CCCC[C@@H]3C(=O)N[C@H](Cc3ccccc3)COc3cnc4cccc(F)c4c3C(=O)N2)on1 [Example 534, (9S,13S,19aR,22R)-22-benzyl-6-fluoro-13-isobutyl-12-methyl-N-(2-(3-methylisoxazol-5-yl)ethyl)-7,11,14,20-tetraoxo-7,8,9,10,11,12,13,14,17,18,19,19a,20,21,22,23-hexadecahydro-16H-pyrido[2′,1′:6,7][1]oxa[4,7,10,14]tetraazacycloheptadecino[17,16-c]quinoline-9-carboxamide]	0.273	394	–
COc1cccc(CCNC(=O)[C@@H]2CC(=O)N(C)[C@@H](CC(C)C)C(=O)N3CCCC[C@@H]3C(=O)N[C@H](Cc3ccccc3)COc3cnc4cccc(F)c4c3C(=O)N2)c1 [Example 535, (9S,13S,19aR,22R)-22-benzyl-6-fluoro-13-isobutyl-N-(3-methoxyphenethyl)-12-methyl-7,11,14,20-tetraoxo-7,8,9,10,11,12,13,14,17,18,19,19a,20,21,22,23-hexadecahydro-16H-pyrido[2′,1′:6,7][1]oxa[4,7,10,14]tetraazacycloheptadecino[17,16-c]quinoline-9-carboxamide]	0.407	424	–
COc1cccc(CCNC(=O)[C@@H]2CC(=O)N(C)[C@@H](CC(C)C)C(=O)N3CCN(c4ccccc4)C[C@@H]3C(=O)N[C@H](Cc3ccccc3)COc3ccc4nc(C)oc4c3C(=O)N2)c1 [Example 536, (8S,12S,18aR,21R)-21-benzyl-12-isobutyl-N-(3-methoxyphenethyl)-4,11-dimethyl-6,10,13,19-tetraoxo-17-phenyl-6,7,8,9,10,11,12,13,16,17,18,18a,19,20,21,22-hexadecahydro-15H-oxazolo[4′,5′:5,6]benzo[1,2-p]pyrazino[2,1-f][1]oxa[4,7,10,14]tetraazacycloheptadecine-8-carboxamide]	0.175	358	–
COc1cccc(CCNC(=O)[C@@H]2CC(=O)N(C)[C@@H](CC(C)C)C(=O)N3CC[C@@H](C3)C(=O)N[C@H](Cc3ccccc3)COc3cnc4ccc(F)cc4c3C(=O)N2)c1 [Example 537, (73S,4R,9S,13S)-4-benzyl-16-fluoro-9-isobutyl-N-(3-methoxyphenethyl)-10-methyl-6,8,11,15-tetraoxo-2-oxa-5,10,14-triaza-1(3,4)-quinolina-7(3,1)-pyrrolidinacyclopentadecaphane-13-carboxamide]	0.384	294	–
COc1cccc(CCNC(=O)[C@@H]2CC(=O)N(C)[C@@H](CC(C)C)C(=O)N3CCN(c4ccccc4)C[C@@H]3C(=O)N[C@H](Cc3ccccc3)COc3ccnc(OC)c3C(=O)N2)c1 [Example 538, (7S,11S,20R,22aR)-20-benzyl-7-isobutyl-14-methoxy-N-(3-methoxyphenethyl)-8-methyl-6,9,13,22-tetraoxo-2-phenyl-1,3,4,6,7,8,9,10,11,12,13,19,20,21,22,22a-hexadecahydro-2H-pyrazino[2,1-f]pyrido[3,4-p][1]oxa[4,7,10,14]tetraazacycloheptadecine-11-carboxamide]	0.08	340	–
CC(C)C[C@H]1C(=O)N(C)[C@@H](CC2CCC(F)(F)CC2)C(=O)N[C@H](Cc2ccccc2)COc2cnc3ccc(F)cc3c2C(=O)N[C@H](C(=O)NCCc2noc(C3CC3)n2)CC(=O)N1C [Example 539, (3S,7S,10R,13R)-13-benzyl-N-(2-(5-cyclopropyl-1,2,4-oxadiazol-3-yl)ethyl)-10-((4,4-difluorocyclohexyl)methyl)-20-fluoro-7-isobutyl-6,9-dimethyl-1,5,8,11-tetraoxo-1,2,3,4,5,6,7,8,9,10,11,12,13,14-tetradecahydro-[1]oxa[4,7,10,14]tetraazacycloheptadecino[17,16-c]quinoline-3-carboxamide]	0.095	–	391
